US20260022142A1, “MACROCYCLIC IMMUNOMODULATORS” (Bristol-Myers Squibb Company, priority 2022, published 2026)
pIC50: −log10 of the molar value. Numbered stars: 1 amine (or outer) side, 2 acyl side, 3 side chain; on linkers, the order of the positions; unused ones are H or OH. Bridge positions count the residues as written; N and C are the ends. Square brackets hold non-standard residues; d marks the D form. Peptide text beside a SMILES is read from it. * marks the point of attachment. ξ: configuration not given here. Trp(βS-Me) = C[C@@H](c1c[nH]c2ccccc12)[C@H](N)C(=O)O; Phe(3-CF3) = N[C@@H](Cc1cccc(C(F)(F)F)c1)C(=O)O; Phe(4-COOH) = N[C@@H](Cc1ccc(C(=O)O)cc1)C(=O)O; d(γGlu) = O=C(O)[C@@H](CCC(=O)[*:2])N[*:1]; Bip = N[C@@H](Cc1ccc(-c2ccccc2)cc1)C(=O)O; Phe(4-NH2) = Nc1ccc(C[C@H](N)C(=O)O)cc1; NH(CH2)14COOH = O=C(O)CCCCCCCCCCCCCCN*; Phe(3-Me) = Cc1cccc(C[C@H](N)C(=O)O)c1; Phe(2-Me) = Cc1ccccc1C[C@H](N)C(=O)O; Val(3-OH) = CC(C)(O)[C@H](N)C(=O)O; 4Pal = N[C@@H](Cc1ccncc1)C(=O)O; Cha = N[C@@H](CC1CCCCC1)C(=O)O; Cit = NC(=O)NCCC[C@H](N)C(=O)O; Thr(3ξ) = CC(O)[C@H](N)C(=O)O; 12Ado = NCCCCCCCCCCCC(=O)O; Carboxymethyl = O=C(O)C*; Orn = NCCC[C@H](N)C(=O)O; Aun = NCCCCCCCCCCC(=O)O; Dab = NCC[C@H](N)C(=O)O; Dap = NC[C@H](N)C(=O)O; AEEA = NCCOCCOCC(=O)O; Ac3c = NC1(C(=O)O)CC1; ξDab = NCCC(N)C(=O)O

Molecular target: T1, PD-1/PD-L1 interaction (PE-labeled human PD-L1-Ig binding to Jurkat cell line over-expressing human PD-1) (Homo sapiens, UniProt Q15116)
T1 construct: expressed in transfected cells; host or cells: Jurkat
T1 sequence (Q15116 25-288): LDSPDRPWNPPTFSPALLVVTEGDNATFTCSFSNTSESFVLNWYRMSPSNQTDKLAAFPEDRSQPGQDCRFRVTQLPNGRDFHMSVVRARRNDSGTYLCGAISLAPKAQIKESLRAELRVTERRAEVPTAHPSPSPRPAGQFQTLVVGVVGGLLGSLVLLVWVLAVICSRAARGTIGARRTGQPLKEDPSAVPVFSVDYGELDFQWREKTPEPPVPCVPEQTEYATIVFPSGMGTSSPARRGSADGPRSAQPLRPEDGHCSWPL
Experiment: Jurkat-PD-1 Cell Binding High-Content Screening Assay (CBA)
Type: cell-based
Conditions: Jurkat cell line over-expressing human PD-1; PE-labeled PD-L1-Ig 20 nM final; read-out: Jurkat hPD1-PDL1 IC50
Summary of the method: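 Jurkat cells stably over-expressing human PD-1 were seeded in DMEM with 10% fetal calf serum and pre-incubated with compound for 2 h at 37° C. PE-labeled human PD-L1-Ig was then added at 20 nM final for 1 hour, after which cells were fixed with paraformaldehyde, Hoechst-stained and imaged by high-content microscopy.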

| Structure (SMILES) | pIC50 |
| --- | --- |
| Cc1cccc(C[C@@H]2NC(=O)[C@H](CC(=O)O)NC(=O)[C@H](Cc3ccc(OCC(=O)O)cc3)NC(=O)[C@H](CN)NC(=O)CSC[C@@H](C(=O)N[C@@H](CC(=O)O)C(=O)NCCCCCCCCCCC(=O)O)NC(=O)[C@H]([C@@H](C)O)NC(=O)[C@H](C(C)C)NC(=O)[C@H](CC3CCCCC3)NC(=O)[C@H](CCN)NC(=O)[C@@H](CC(C)C)NC(=O)[C@H](CCCN)NC(=O)[C@H](CCCNC(N)=O)NC(=O)[C@H](Cc3ccc(-c4ccccc4)cc3)NC(=O)[C@H](C(C)C)NC2=O)c1 [Compound 1026] ({CH2CO}-[Dap]Y(Carboxymethyl)D[Phe(3-Me)]V[Bip][Cit][Orn][dL][Dab][Cha]VTCD[Aun]-OH; thioether N-14) | 8.06 |
| Cc1cccc(C[C@@H]2NC(=O)[C@H](CC(=O)O)NC(=O)[C@H](Cc3c[nH]cn3)NC(=O)[C@H](CCCNC(=N)N)NC(=O)CSC[C@@H](C(=O)NCCOCCOCC(=O)N[C@@H](CCN)C(=O)NCCCCCCCCCCC(=O)O)NC(=O)[C@H](CO)NC(=O)[C@H](C(C)C)NC(=O)[C@H](CC3CCCCC3)NC(=O)[C@H](CCN)NC(=O)[C@@H](CC(C)C)NC(=O)[C@H](CCCN)NC(=O)[C@H](C(C)C)NC(=O)[C@H](Cc3ccc(-c4ccccc4)cc3)NC(=O)[C@H](C(C)C)NC2=O)c1 [Compound 3295] ({CH2CO}-RHD[Phe(3-Me)]V[Bip]V[Orn][dL][Dab][Cha]VSC[AEEA][Dab][Aun]-OH; thioether N-14) | 7.90 |
| CC(C)C[C@H]1NC(=O)[C@H](CCCN)NC(=O)[C@H](C(C)C)NC(=O)[C@H](Cc2ccc(-c3ccccc3)cc2)NC(=O)[C@H](C(C)C)NC(=O)[C@H](Cc2ccc(N)cc2)NC(=O)[C@H](CC(=O)O)NC(=O)[C@H](Cc2ccc(OCC(=O)O)cc2)NC(=O)[C@H](CN)NC(=O)CSC[C@@H](C(=O)N[C@@H](CCN)C(=O)NCCCCCCCCCCC(=O)O)NC(=O)[C@H](CCCCN)NC(=O)[C@H](C(C)C)NC(=O)[C@H](CC2CCCCC2)NC(=O)[C@H](CCN)NC1=O [Compound 2028] ({CH2CO}-[Dap]Y(Carboxymethyl)D[Phe(4-NH2)]V[Bip]V[Orn][dL][Dab][Cha]VKC[Dab][Aun]-OH; thioether N-14) | 7.86 |
| CC(C)C[C@H]1NC(=O)[C@H](CCCN)NC(=O)[C@H](Cc2ccc(C(=O)O)cc2)NC(=O)[C@H](Cc2ccc(-c3ccccc3)cc2)NC(=O)[C@H](Cc2ccc(C(=O)O)cc2)NC(=O)[C@H](Cc2cccc(C(F)(F)F)c2)NC(=O)[C@H](CC(=O)O)NC(=O)[C@H](Cc2ccc(OCC(=O)O)cc2)NC(=O)[C@H](Cc2ccc(OCC(=O)O)cc2)NC(=O)CSC[C@@H](C(=O)N[C@@H](CCN)C(=O)NCCOCCOCC(=O)NCCOCCOCC(=O)NCCCCCCCCCCCCCCC(=O)O)NC(=O)[C@H](CO)NC(=O)[C@H](C(C)(C)O)NC(=O)[C@H](CC2CCCCC2)NC(=O)[C@H](CCN)NC1=O [Compound 3839] ({CH2CO}-Y(Carboxymethyl)Y(Carboxymethyl)D[Phe(3-CF3)][Phe(4-COOH)][Bip][Phe(4-COOH)][Orn][dL][Dab][Cha][Val(3-OH)]SC[Dab][AEEA][AEEA]-{NH(CH2)14COOH}; thioether N-14) | 6.75 |
| CC(C)C[C@H]1NC(=O)[C@H](CCCN)NC(=O)[C@H](Cc2ccc(O)cc2)NC(=O)[C@H](Cc2ccc(-c3ccccc3)cc2)NC(=O)[C@H](C(C)C)NC(=O)[C@H]([C@@H](C)c2c[nH]c3ccccc23)NC(=O)[C@H](CC(=O)O)NC(=O)[C@H](Cc2ccc(OCC(=O)O)cc2)NC(=O)[C@H](CCCNC(=N)N)NC(=O)CSC[C@@H](C(=O)NC2(C(=O)NCCCCCCCCCCC(=O)O)CC2)NC(=O)[C@H]([C@@H](C)O)NC(=O)[C@H](C(C)C)NC(=O)[C@H](CC2CCCCC2)NC(=O)[C@H](CCN)NC1=O [Compound 2133] ({CH2CO}-RY(Carboxymethyl)D[Trp(βS-Me)]V[Bip]Y[Orn][dL][Dab][Cha]VTC[Ac3c][Aun]-OH; thioether N-14) | 7.23 |
| Cc1cccc(C[C@@H]2NC(=O)[C@H](CC(=O)O)NC(=O)[C@H](Cc3ccc(OCC(=O)O)cc3)NC(=O)[C@H](C(C)O)NC(=O)CSC[C@@H](C(=O)NC(CCN)C(=O)NCCCCCCCCCCCC(=O)O)NC(=O)[C@H](C(C)O)NC(=O)[C@H](C(C)C)NC(=O)[C@H](CC3CCCCC3)NC(=O)[C@H](CCN)NC(=O)[C@@H](CC(C)C)NC(=O)[C@H](CCCN)NC(=O)[C@H](CCCNC(N)=O)NC(=O)[C@H](Cc3ccc(-c4ccccc4)cc3)NC(=O)[C@H](C(C)C)NC2=O)c1 (stereo partly drawn) [Compound 3504] ({CH2CO}-[Thr(3ξ)]Y(Carboxymethyl)D[Phe(3-Me)]V[Bip][Cit][Orn][dL][Dab][Cha]V[Thr(3ξ)]C[ξDab][12Ado]-OH; thioether N-14) | 7.58 |
| Cc1cccc(C[C@@H]2NC(=O)[C@H](CC(=O)O)NC(=O)[C@H](Cc3ccc(OCC(=O)O)cc3)NC(=O)[C@H](CCCNC(=N)N)NC(=O)CSC[C@@H](C(=O)N[C@@H](CCCCN)C(=O)N[C@@H](CO)C(=O)NCCCCCCCCCCCC(=O)O)NC(=O)[C@H](CN)NC(=O)[C@H](C(C)C)NC(=O)[C@H](CC3CCCCC3)NC(=O)[C@H](CCN)NC(=O)[C@@H](CC(C)C)NC(=O)[C@H](CCCN)NC(=O)[C@H](CCCNC(N)=O)NC(=O)[C@H](Cc3ccc(-c4ccccc4)cc3)NC(=O)[C@H](C(C)C)NC2=O)c1 [Compound 3534] ({CH2CO}-RY(Carboxymethyl)D[Phe(3-Me)]V[Bip][Cit][Orn][dL][Dab][Cha]V[Dap]CKS[12Ado]-OH; thioether N-14) | 7.65 |

Other lines, results leading:

| pIC50 | Structure (SMILES) |
| --- | --- |
| 8.14 | Cc1cccc(C[C@@H]2NC(=O)[C@H](CC(=O)O)NC(=O)[C@H](Cc3ccc(OCC(=O)O)cc3)NC(=O)[C@H](CCCNC(=N)N)NC(=O)CSC[C@@H](C(=O)N[C@@H](CCN)C(=O)NCCCCCCCCCCC(=O)O)NC(=O)[C@H](CO)NC(=O)[C@H](C(C)O)NC(=O)[C@H](CC3CCCCC3)NC(=O)[C@H](CCN)NC(=O)[C@@H](CC(C)C)NC(=O)[C@H](CCCN)NC(=O)[C@H](Cc3ccc(OCC(=O)O)cc3)NC(=O)[C@H](Cc3ccc(-c4ccccc4)cc3)NC(=O)[C@H](Cc3ccc(OCC(=O)O)cc3)NC2=O)c1 (stereo partly drawn) [Compound 3530] ({CH2CO}-RY(Carboxymethyl)D[Phe(3-Me)]Y(Carboxymethyl)[Bip]Y(Carboxymethyl)[Orn][dL][Dab][Cha][Thr(3ξ)]SC[Dab][Aun]-OH; thioether N-14) |
| 8.16 | CC(=O)NCCCC[C@@H]1NC(=O)[C@H](C(C)C)NC(=O)[C@H](CC2CCCCC2)NC(=O)[C@H](CCN)NC(=O)[C@@H](CC(C)C)NC(=O)[C@H](CCCN)NC(=O)[C@H](Cc2ccc(O)cc2)NC(=O)[C@H](Cc2ccc(-c3ccccc3)cc2)NC(=O)[C@H](C(C)C)NC(=O)[C@H](Cc2c[nH]c3ccccc23)NC(=O)[C@H](CC(=O)O)NC(=O)[C@H](Cc2ccc(OCC(=O)O)cc2)NC(=O)[C@H](CCCNC(=N)N)NC(=O)CSC[C@@H](C(=O)NCCOCCOCC(=O)N[C@H](CCC(=O)NCCCCCCCCCCC(=O)O)C(=O)O)NC1=O [Compound 3401] ({CH2CO}-RY(Carboxymethyl)DWV[Bip]Y[Orn][dL][Dab][Cha]VK(Ac)C[AEEA][d(γGlu)][Aun]-OH; thioether N-14) |
| 8.40 | Cc1cccc(C[C@@H]2NC(=O)[C@H](CC(=O)O)NC(=O)[C@H](Cc3ccc(OCC(=O)O)cc3)NC(=O)[C@H](CN)NC(=O)CSC[C@@H](C(=O)N[C@@H](CCN)C(=O)NCCOCCOCC(=O)NCCCCCCCCCCC(=O)O)NC(=O)[C@H](CCCN)NC(=O)[C@H](C(C)C)NC(=O)[C@H](CC3CCCCC3)NC(=O)[C@H](CCN)NC(=O)[C@@H](CC(C)C)NC(=O)[C@H](CCCN)NC(=O)[C@H](Cc3ccc(O)cc3)NC(=O)[C@H](Cc3ccc(-c4ccccc4)cc3)NC(=O)[C@H](Cc3ccc(OCC(=O)O)cc3)NC2=O)c1 [Compound 2059] ({CH2CO}-[Dap]Y(Carboxymethyl)D[Phe(3-Me)]Y(Carboxymethyl)[Bip]Y[Orn][dL][Dab][Cha]V[Orn]C[Dab][AEEA][Aun]-OH; thioether N-14) |
| 7.91 | Cc1cccc(C[C@@H]2NC(=O)[C@H](CC(=O)O)NC(=O)[C@H](Cc3ccc(OCC(=O)O)cc3)NC(=O)[C@H](CN)NC(=O)CSC[C@@H](C(=O)N[C@@H](CCN)C(=O)NCCOCCOCC(=O)NCCCCCCCCCCC(=O)O)NC(=O)[C@H](CCCN)NC(=O)[C@H](C(C)C)NC(=O)[C@H](CC3CCCCC3)NC(=O)[C@H](CCN)NC(=O)[C@@H](CC(C)C)NC(=O)[C@H](CCCN)NC(=O)[C@H](Cc3ccccc3C)NC(=O)[C@H](Cc3ccc(-c4ccccc4)cc3)NC(=O)[C@H](Cc3ccc(O)cc3)NC2=O)c1 [Compound 2048] ({CH2CO}-[Dap]Y(Carboxymethyl)D[Phe(3-Me)]Y[Bip][Phe(2-Me)][Orn][dL][Dab][Cha]V[Orn]C[Dab][AEEA][Aun]-OH; thioether N-14) |
| 7.53 | Cc1cccc(C[C@@H]2NC(=O)[C@H](CC(=O)O)NC(=O)[C@H](Cc3ccc(OCC(=O)O)cc3)NC(=O)[C@H](CCCNC(=N)N)NC(=O)CSC[C@@H](C(=O)N[C@@H](CCN)C(=O)NCCCCCCCCCCC(=O)O)NC(=O)[C@H](CO)NC(=O)[C@H](C(C)C)NC(=O)[C@H](CC3CCCCC3)NC(=O)[C@H](CCN)NC(=O)[C@@H](CC(C)C)NC(=O)[C@H](CCCN)NC(=O)[C@H](Cc3ccncc3)NC(=O)[C@H](Cc3ccc(-c4ccccc4)cc3)NC(=O)[C@H](Cc3ccc(OCC(=O)O)cc3)NC2=O)c1 [Compound 2115] ({CH2CO}-RY(Carboxymethyl)D[Phe(3-Me)]Y(Carboxymethyl)[Bip][4Pal][Orn][dL][Dab][Cha]VSC[Dab][Aun]-OH; thioether N-14) |
| 8.19 | CC(=O)NCCCC[C@@H]1NC(=O)[C@H](Cc2ccc(-c3ccccc3)cc2)NC(=O)[C@H](C(C)C)NC(=O)[C@H](Cc2cccc(C)c2)NC(=O)[C@H](CC(=O)O)NC(=O)[C@H](Cc2ccc(OCC(=O)O)cc2)NC(=O)[C@H](CN)NC(=O)CSC[C@@H](C(=O)N[C@@H](CCN)C(=O)N[C@@H](CO)C(=O)NCCCCCCCCCCCC(=O)O)NC(=O)[C@H](CCCN)NC(=O)[C@H](C(C)C)NC(=O)[C@H](CC2CCCCC2)NC(=O)[C@H](CCN)NC(=O)[C@@H](CC(C)C)NC(=O)[C@H](CCCN)NC1=O [Compound 3590] ({CH2CO}-[Dap]Y(Carboxymethyl)D[Phe(3-Me)]V[Bip]K(Ac)[Orn][dL][Dab][Cha]V[Orn]C[Dab]S[12Ado]-OH; thioether N-14) |
